Reference: patent US5202315A, “Cephalosporin compounds” (Lucky, Ltd., priority 1989, dated 1993)
≈ marks a conversion by molar mass, not a printed value. Like-named read-outs stand apart in the source and are kept apart here.

Columns and labels:
Assay in all cases: Antibacterial activity, MIC
Assay type in all cases: cell-based
[1] = system: Acinetobacter calcoaceticus ATCC 15473; settings: ATCC15473, ATCC 15473, agar two-fold dilution, 37° C., 20 hours, read-out: MIC
Experimental: (§1) Also, the in vitro antibacterial activity was determined by the by a two-fold dilution method as described below:
(§2) That is, the two-fold serial dilutions of the compound were made dispersed in Muller-Hinton agar medium. 2 μl of standard test strain which had the 10^7 CFU per ml was inoculated on the medium, and was incubated at 37° C. for 20 hours.

[2] = system: Bacillus cereus ATCC 11778; settings: ATCC11778, ATCC 11778, agar two-fold dilution, 37° C., 20 hours, read-out: MIC
Experimental: as §1, §2

[3] = system: Bacillus megaterium ATCC 9885; settings: Priestia megaterium, ATCC9885; ATCC 9885; agar two-fold dilution, 37° C., 20 hours; read-out: MIC
Experimental: as §1, §2

[4] = system: Citrobacter freundii ATCC 8090; settings: ATCC8090, ATCC 8090, agar two-fold dilution, 37° C., 20 hours, read-out: MIC
Experimental: as §1, §2

[5] = system: Enterobacter aerogenes ATCC 29751; settings: Klebsiella aerogenes, ATCC29751; ATCC 29751; agar two-fold dilution, 37° C., 20 hours; read-out: MIC
Experimental: as §1, §2

[6] = system: Enterobacter cloacae ATCC 27508; settings: ATCC27508, ATCC 27508, agar two-fold dilution, 37° C., 20 hours, read-out: MIC
Experimental: as §1, §2

[7] = system: Escherichia coli ATCC 10536; settings: ATCC10536, agar two-fold dilution, 37° C., 20 hours
Experimental: as §1, §2

[8] = system: Escherichia coli ATCC 25922; settings: ATCC25922, agar two-fold dilution, 37° C., 20 hours
Experimental: as §1, §2

[9] = system: Klebsiella pneumoniae ATCC 10031; settings: ATCC10031, ATCC 10031, agar two-fold dilution, 37° C., 20 hours, read-out: MIC
Experimental: as §1, §2

[10] = system: Micrococcus luteus ATCC 9341; settings: ATCC9341, ATCC 9341, agar two-fold dilution, 37° C., 20 hours, read-out: MIC
Experimental: as §1, §2

[11] = system: Morganella morganii ATCC 8076h; settings: ATCC8076H, agar two-fold dilution, 37° C., 20 hours
Experimental: as §1, §2

[12] = system: Proteus mirabilis ATCC 25933; settings: ATCC25933, ATCC 25933, agar two-fold dilution, 37° C., 20 hours, read-out: MIC
Experimental: as §1, §2

[13] = system: Proteus vulgaris ATCC 6059; settings: ATCC6059, ATCC 6059, agar two-fold dilution, 37° C., 20 hours, read-out: MIC
Experimental: as §1, §2

[14] = system: Providencia rettgeri ATCC 9250; settings: ATCC9250, agar two-fold dilution, 37° C., 20 hours
Experimental: as §1, §2

[15] = system: Pseudomonas aeruginosa ATCC 10145; settings: ATCC10145, ATCC 10145, agar two-fold dilution, 37° C., 20 hours, read-out: MIC
Experimental: as §1, §2

[16] = system: Pseudomonas aeruginosa ATCC 25619; settings: ATCC25619, ATCC 25619, agar two-fold dilution, 37° C., 20 hours, read-out: MIC
Experimental: as §1, §2

[17] = system: Pseudomonas aeruginosa ATCC 27853; settings: ATCC27853, ATCC 27853, agar two-fold dilution, 37° C., 20 hours, read-out: MIC
Experimental: as §1, §2

[18] = system: Salmonella typhimurium ATCC 14028; settings: Salmonella enterica; ATCC 14028; agar two-fold dilution, 37° C., 20 hours; read-out: MIC
Experimental: as §1, §2

[19] = system: Serratia marcescens ATCC 27117; settings: ATCC27117, ATCC 27117, agar two-fold dilution, 37° C., 20 hours, read-out: MIC
Experimental: as §1, §2

[20] = system: Shigella flexneri ATCC 11836; settings: ATCC11836, agar two-fold dilution, 37° C., 20 hours
Experimental: as §1, §2

[21] = system: Shigella sonnei ATCC 11060
Experimental: as §1, §2

[22] = system: Staphylococcus aureus ATCC 10537; settings: ATCC10537, ATCC 10537, agar two-fold dilution, 37° C., 20 hours, read-out: MIC
Experimental: as §1, §2

[23] = system: Staphylococcus aureus ATCC 6538p; settings: ATCC6538P, ATCC 6538p, agar two-fold dilution, 37° C., 20 hours, read-out: MIC
Experimental: as §1, §2

[24] = system: Staphylococcus epidermidis ATCC 12228; settings: ATCC12228, ATCC 12228, agar two-fold dilution, 37° C., 20 hours, read-out: MIC
Experimental: as §1, §2

Compound | MIC [1] [µg/mL] | MIC [2] [µg/mL] | MIC [3] [µg/mL] | MIC [4] [µg/mL] | MIC [5] [µg/mL] | MIC [6] [µg/mL] | MIC [7] [µg/mL] | MIC [8] [µg/mL] | MIC [9] [µg/mL] | MIC [10] [µg/mL] | MIC [11] [µg/mL] | MIC [12] [µg/mL] | MIC [13] [µg/mL] | MIC [14] [µg/mL] | MIC [15] [µg/mL] | MIC [16] [µg/mL] | MIC [17] [µg/mL] | MIC [18] [µg/mL] | MIC [19] [µg/mL] | MIC [20] [µg/mL] | also measured
CO/N=C(\C(=O)NC1C(=O)N2C(C(=O)[O-])=C(CSc3nc(N)cc(N)[n+]3C)CSC12)c1csc(N)n1 (stereo not drawn) [Compound I-10] | 8 (≈ 14.5 µM) | 32 (≈ 58 µM) | 0.25 (≈ 0.453 µM) | 0.063 (≈ 0.114 µM) | 0.5 (≈ 0.906 µM) | ≤ 0.008 | 0.063 (≈ 0.114 µM) | 0.063 (≈ 0.114 µM) | 0.016 (≈ 0.029 µM) | 0.063 (≈ 0.114 µM) | ≤ 0.008 | 0.13 (≈ 0.236 µM) | 0.13 (≈ 0.236 µM) | ≤ 0.008 | 32 (≈ 58 µM) | 2 (≈ 3.63 µM) | 8 (≈ 14.5 µM) | 0.25 (≈ 0.453 µM) | 0.063 (≈ 0.114 µM) | 0.016 (≈ 0.029 µM) | MIC ([21]; ATCC11060, ATCC 11060, agar two-fold dilution, 37° C., 20 hours, read-out: MIC): 0.063 µg/mL (≈ 0.114 µM); MIC [22]: 0.25 µg/mL (≈ 0.453 µM); MIC [23]: 0.25 µg/mL (≈ 0.453 µM); MIC [24]: 0.13 µg/mL (≈ 0.236 µM)
CCO/N=C(\C(=O)NC1C(=O)N2C(C(=O)[O-])=C(CSc3nc(N)cc(N)[n+]3C)CSC12)c1csc(N)n1 (stereo not drawn) [Compound I-11] | 4 (≈ 7.07 µM) | 32 (≈ 56.6 µM) | 0.13 (≈ 0.23 µM) | 0.063 (≈ 0.111 µM) | 0.5 (≈ 0.884 µM) | ≤ 0.008 | 0.13 (≈ 0.23 µM) | 0.13 (≈ 0.23 µM) | 0.016 (≈ 0.0283 µM) | 0.016 (≈ 0.0283 µM) | ≤ 0.008 | 0.25 (≈ 0.442 µM) | 0.25 (≈ 0.442 µM) | ≤ 0.008 | 8 (≈ 14.1 µM) | 2 (≈ 3.54 µM) | 4 (≈ 7.07 µM) | 0.25 (≈ 0.442 µM) | 0.13 (≈ 0.23 µM) | 0.031 (≈ 0.0548 µM) | MIC ([21]; ATCC11060, 20 h): 0.13 µg/mL (≈ 0.23 µM); MIC [22]: 0.25 µg/mL (≈ 0.442 µM); MIC [23]: 0.25 µg/mL (≈ 0.442 µM); MIC [24]: 0.063 µg/mL (≈ 0.111 µM)
